We go through 3 compounds from ChEMBL document CHEMBL3856204, “Chiral 6-aryl-furo[2,3-d]pyrimidin-4-amines as EGFR inhibitors” (Eur J Med Chem, 2016).

Assay [1] deals with Dual specificity mitogen-activated protein kinase kinase 1 (Homo sapiens) (UniProt Q02750). The assay is described as follows: Inhibition of His tagged recombinant full length human MEK1 expressed in baculovirus at 500 nM by Z'-LYTE assay.
Assay [2] has as its target MAP kinase-activated protein kinase 2 (Homo sapiens) (UniProt P49137). The assay can be described thus: Inhibition of His tagged recombinant full length human MAPKAPK2 expressed in Escherichia coli at 500 nM by Z'-LYTE assay.
The target in assay [3] is T1, Ephrin type-B receptor 1 (Homo sapiens) (UniProt P54762).
T1 sequence (whole entry): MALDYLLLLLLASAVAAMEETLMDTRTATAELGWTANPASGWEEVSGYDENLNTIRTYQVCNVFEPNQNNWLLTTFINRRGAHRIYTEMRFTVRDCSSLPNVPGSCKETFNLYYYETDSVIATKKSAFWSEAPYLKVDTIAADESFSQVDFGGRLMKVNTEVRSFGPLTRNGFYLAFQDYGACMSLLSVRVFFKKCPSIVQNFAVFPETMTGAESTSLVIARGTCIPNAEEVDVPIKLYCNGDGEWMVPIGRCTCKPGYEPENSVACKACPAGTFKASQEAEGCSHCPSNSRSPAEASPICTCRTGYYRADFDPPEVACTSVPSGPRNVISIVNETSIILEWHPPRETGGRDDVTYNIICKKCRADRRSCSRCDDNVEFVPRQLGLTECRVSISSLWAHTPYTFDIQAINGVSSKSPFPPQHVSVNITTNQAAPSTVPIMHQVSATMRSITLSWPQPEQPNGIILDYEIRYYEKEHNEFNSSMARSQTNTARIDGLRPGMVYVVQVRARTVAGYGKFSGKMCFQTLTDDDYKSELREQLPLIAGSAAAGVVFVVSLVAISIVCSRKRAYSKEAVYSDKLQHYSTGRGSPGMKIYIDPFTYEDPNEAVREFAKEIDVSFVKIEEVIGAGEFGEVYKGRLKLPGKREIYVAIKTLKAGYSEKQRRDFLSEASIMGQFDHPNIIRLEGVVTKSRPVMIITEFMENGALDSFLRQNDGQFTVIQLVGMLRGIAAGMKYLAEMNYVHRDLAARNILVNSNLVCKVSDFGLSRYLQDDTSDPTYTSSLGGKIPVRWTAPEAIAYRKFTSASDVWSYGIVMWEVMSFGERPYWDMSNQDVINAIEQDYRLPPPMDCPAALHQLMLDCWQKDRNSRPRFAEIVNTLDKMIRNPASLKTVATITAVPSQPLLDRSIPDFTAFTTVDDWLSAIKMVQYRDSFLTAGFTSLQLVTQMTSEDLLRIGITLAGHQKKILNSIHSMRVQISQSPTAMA
The assay is described as follows: Inhibition of GST tagged recombinant human EPHB1 cytoplasmic domain (613 to 881 residues) expressed in baculovirus at 500 nM by Z'-LYTE assay.

In assay [4] the target is Protein kinase C theta type (Homo sapiens) (UniProt Q04759). The assay can be described thus: Inhibition of His tagged recombinant full length human PRKCQ expressed in baculovirus at 500 nM by Z'-LYTE assay.
Sequence of Protein kinase C theta type (Homo sapiens) (Q04759 whole entry, looked up, the tested form may be a part): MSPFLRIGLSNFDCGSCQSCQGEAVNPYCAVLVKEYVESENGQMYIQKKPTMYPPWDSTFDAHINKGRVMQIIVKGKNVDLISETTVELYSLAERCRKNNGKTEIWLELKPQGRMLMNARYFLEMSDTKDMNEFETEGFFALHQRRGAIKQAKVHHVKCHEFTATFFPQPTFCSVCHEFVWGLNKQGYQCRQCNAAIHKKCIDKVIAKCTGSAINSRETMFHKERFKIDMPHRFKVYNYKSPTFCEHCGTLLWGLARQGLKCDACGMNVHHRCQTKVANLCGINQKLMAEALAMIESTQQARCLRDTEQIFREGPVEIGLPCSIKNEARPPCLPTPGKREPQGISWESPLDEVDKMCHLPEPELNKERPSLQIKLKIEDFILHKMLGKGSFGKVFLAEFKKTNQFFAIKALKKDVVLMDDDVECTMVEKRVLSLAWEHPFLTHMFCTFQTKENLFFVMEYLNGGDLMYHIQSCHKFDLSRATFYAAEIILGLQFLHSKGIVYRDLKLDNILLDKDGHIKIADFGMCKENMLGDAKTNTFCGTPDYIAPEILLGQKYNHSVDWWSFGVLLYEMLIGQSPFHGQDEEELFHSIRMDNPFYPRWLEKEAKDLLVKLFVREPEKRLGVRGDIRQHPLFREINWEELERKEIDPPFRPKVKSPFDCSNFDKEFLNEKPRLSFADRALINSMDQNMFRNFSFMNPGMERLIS
Assay [5] deals with Platelet-derived growth factor receptor alpha (Homo sapiens) (UniProt P16234). The assay can be described thus: Inhibition of GST tagged recombinant human PGFRA cytoplasmic domain (550 to 1089 residues) expressed in baculovirus at 500 nM by Z'-LYTE assay.
Sequence of Platelet-derived growth factor receptor alpha (Homo sapiens) (P16234 whole entry, the tested form may be a part): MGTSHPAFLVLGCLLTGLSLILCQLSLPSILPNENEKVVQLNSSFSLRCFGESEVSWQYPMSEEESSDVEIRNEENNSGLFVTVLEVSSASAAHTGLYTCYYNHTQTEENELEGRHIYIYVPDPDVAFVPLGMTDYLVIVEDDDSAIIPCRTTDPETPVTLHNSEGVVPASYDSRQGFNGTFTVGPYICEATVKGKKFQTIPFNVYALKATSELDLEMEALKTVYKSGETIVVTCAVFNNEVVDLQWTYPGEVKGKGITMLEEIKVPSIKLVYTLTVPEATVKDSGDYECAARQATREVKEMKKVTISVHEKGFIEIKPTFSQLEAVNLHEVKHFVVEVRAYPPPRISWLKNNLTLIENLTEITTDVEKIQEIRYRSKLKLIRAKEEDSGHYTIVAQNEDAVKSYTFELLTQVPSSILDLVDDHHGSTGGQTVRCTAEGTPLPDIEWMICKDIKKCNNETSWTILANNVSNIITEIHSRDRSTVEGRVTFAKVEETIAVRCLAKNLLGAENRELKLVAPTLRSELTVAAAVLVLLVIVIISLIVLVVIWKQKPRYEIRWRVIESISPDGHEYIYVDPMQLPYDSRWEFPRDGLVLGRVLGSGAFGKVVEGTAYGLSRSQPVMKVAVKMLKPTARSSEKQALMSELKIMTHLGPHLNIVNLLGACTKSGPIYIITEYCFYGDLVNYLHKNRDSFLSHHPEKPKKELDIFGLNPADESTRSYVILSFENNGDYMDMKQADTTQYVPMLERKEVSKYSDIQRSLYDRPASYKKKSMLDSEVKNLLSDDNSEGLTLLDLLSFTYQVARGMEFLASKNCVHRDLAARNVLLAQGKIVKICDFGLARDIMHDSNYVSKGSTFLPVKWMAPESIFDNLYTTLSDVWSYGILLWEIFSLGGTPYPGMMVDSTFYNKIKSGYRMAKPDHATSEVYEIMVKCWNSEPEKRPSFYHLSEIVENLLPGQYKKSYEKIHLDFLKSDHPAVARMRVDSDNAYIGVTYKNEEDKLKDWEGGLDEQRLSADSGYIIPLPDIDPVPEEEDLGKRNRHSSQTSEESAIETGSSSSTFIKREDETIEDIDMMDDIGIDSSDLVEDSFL
The target in assay [6] is Serine/threonine-protein kinase PLK1 (Homo sapiens) (UniProt P53350). The assay is described as follows: Inhibition of His tagged recombinant full length human PLK1 expressed in baculovirus at 500 nM by Z'-LYTE assay.
Sequence of Serine/threonine-protein kinase PLK1 (Homo sapiens) (P53350 whole entry): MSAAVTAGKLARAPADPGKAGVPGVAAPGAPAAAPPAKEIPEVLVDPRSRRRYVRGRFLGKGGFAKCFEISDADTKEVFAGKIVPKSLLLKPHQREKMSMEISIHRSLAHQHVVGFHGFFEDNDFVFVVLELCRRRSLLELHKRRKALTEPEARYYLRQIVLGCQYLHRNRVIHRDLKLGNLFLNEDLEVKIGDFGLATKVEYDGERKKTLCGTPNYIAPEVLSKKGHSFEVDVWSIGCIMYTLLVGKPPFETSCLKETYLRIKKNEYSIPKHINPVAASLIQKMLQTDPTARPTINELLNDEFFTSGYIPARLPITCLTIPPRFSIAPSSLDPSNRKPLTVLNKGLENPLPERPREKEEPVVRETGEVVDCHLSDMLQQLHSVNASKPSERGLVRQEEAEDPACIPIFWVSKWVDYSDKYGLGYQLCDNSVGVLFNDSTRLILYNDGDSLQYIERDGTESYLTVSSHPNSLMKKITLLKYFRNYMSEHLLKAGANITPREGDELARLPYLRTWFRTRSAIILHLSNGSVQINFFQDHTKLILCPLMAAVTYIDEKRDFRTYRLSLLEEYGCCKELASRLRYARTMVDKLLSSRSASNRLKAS
Assay [7] addresses Glycogen synthase kinase-3 beta (Homo sapiens) (UniProt P49841). The assay can be described thus: Inhibition of His tagged recombinant full length human GSK3B expressed in baculovirus at 500 nM by Z'-LYTE assay.
Assay [8] concerns the target Tyrosine-protein kinase HCK (Homo sapiens) (UniProt P08631). The assay can be described thus: Inhibition of recombinant full length human N-terminal GST-tagged HCK expressed in baculovirus at 500 nM by Z'-LYTE assay.
The target of assay [9] is Tyrosine-protein kinase Fer (Homo sapiens) (UniProt P16591). The assay can be described thus: Inhibition of recombinant human GST-tagged FER (541 to 822 residues) expressed in baculovirus at 500 nM by Z'-LYTE assay- tagged.
Sequence of Tyrosine-protein kinase Fer (Homo sapiens) (P16591 whole entry, looked up, the tested form may be a part): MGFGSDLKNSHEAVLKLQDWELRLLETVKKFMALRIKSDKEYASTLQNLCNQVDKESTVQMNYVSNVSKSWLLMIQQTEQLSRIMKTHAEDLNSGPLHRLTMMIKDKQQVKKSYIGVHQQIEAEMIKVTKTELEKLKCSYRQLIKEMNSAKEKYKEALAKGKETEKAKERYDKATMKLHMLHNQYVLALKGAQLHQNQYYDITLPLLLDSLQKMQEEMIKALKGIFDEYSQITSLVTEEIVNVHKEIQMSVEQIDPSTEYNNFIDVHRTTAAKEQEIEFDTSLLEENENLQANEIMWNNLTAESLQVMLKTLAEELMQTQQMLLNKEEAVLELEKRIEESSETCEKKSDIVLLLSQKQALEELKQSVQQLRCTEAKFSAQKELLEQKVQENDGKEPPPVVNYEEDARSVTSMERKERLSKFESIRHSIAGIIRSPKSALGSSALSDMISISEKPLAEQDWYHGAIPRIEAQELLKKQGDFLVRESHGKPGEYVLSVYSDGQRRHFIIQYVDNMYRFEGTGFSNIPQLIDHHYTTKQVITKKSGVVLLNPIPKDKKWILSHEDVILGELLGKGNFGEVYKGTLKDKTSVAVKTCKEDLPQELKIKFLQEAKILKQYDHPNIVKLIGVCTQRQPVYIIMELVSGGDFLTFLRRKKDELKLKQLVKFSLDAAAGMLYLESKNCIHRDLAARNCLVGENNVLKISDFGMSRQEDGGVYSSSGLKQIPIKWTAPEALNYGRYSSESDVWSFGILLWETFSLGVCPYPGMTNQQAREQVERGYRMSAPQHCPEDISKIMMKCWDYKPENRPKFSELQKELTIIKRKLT
The target of assay [10] is T2, Serine/threonine-protein kinase Chk1 (Homo sapiens) (UniProt O14757).
T2 sequence (whole entry): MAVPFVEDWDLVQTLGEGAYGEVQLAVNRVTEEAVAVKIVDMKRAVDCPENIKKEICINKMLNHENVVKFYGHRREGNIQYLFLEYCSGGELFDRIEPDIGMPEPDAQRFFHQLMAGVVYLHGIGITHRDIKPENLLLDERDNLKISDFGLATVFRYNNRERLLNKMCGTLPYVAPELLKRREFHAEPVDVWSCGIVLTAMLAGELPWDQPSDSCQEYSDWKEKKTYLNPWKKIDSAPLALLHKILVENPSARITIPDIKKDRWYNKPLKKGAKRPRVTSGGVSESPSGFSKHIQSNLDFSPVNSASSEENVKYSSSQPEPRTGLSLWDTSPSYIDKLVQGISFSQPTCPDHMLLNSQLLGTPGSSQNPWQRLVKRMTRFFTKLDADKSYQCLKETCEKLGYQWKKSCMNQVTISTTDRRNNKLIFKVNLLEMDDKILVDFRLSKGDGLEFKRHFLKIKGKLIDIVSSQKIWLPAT
The assay can be described thus: Inhibition of His tagged recombinant full length human CHK1 expressed in baculovirus at 500 nM by Z'-LYTE assay.

Assay [11] concerns the target Focal adhesion kinase 1 (Homo sapiens) (UniProt Q05397). The assay is described as follows: Inhibition of GST tagged recombinant full length human PTK2 expressed in baculovirus at 500 nM by Z'-LYTE assay.
Assay [12] addresses Tyrosine-protein kinase SYK (Homo sapiens) (UniProt P43405). The assay is described as follows: Inhibition of recombinant full length human N-terminal GST-tagged SYK expressed in baculovirus at 500 nM by Z'-LYTE assay.

Sequence of Glycogen synthase kinase-3 beta (Homo sapiens) (P49841 whole entry, looked up): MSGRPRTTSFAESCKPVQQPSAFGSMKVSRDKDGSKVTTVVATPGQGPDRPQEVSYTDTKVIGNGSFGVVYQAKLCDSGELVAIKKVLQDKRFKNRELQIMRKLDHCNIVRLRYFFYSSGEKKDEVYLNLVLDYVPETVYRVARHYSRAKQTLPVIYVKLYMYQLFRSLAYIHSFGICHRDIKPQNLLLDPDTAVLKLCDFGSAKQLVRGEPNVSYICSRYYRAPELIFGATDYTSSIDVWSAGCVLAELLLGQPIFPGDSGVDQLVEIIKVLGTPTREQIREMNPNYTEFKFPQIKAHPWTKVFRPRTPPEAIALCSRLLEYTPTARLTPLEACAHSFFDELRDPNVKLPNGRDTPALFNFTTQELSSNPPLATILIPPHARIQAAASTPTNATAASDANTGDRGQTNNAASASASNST
Sequence of MAP kinase-activated protein kinase 2 (Homo sapiens) (P49137 whole entry, looked up): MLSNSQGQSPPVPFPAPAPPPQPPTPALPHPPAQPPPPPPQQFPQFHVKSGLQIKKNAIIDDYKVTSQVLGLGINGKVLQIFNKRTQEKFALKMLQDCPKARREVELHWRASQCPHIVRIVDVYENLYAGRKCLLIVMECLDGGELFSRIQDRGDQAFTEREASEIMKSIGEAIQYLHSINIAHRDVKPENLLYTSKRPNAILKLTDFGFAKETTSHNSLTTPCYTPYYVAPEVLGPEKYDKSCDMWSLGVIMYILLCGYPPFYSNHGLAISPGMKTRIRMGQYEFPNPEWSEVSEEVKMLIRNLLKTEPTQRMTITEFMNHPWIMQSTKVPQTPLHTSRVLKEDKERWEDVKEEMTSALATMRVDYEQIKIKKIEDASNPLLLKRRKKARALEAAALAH
Sequence of Dual specificity mitogen-activated protein kinase kinase 1 (Homo sapiens) (Q02750 whole entry): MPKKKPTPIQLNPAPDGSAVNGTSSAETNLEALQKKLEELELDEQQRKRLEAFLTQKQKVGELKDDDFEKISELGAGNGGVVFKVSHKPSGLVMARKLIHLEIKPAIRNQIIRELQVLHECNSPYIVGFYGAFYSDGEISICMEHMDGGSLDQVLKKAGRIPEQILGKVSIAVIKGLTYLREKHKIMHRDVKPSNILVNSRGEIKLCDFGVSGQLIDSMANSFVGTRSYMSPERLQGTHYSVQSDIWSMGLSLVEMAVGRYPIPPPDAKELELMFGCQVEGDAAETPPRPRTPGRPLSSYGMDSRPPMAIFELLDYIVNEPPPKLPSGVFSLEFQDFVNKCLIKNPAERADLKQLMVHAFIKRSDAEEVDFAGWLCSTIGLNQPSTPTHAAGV
Sequence of Tyrosine-protein kinase HCK (Homo sapiens) (P08631 2-526 limits assumed): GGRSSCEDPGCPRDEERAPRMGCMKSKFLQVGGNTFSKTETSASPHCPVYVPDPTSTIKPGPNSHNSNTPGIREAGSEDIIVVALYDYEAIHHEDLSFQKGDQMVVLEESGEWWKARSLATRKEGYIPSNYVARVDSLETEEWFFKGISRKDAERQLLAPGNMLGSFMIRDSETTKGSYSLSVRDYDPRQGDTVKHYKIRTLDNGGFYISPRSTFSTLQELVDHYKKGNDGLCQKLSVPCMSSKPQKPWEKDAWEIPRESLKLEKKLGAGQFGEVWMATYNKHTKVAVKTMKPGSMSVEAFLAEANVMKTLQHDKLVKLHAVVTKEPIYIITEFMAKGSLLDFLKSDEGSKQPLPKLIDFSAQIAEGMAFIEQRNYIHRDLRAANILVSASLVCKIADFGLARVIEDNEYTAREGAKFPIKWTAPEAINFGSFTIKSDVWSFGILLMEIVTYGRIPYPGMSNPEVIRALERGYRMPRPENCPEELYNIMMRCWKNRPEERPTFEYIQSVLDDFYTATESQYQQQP

One may read the inhibition as the drop in the measured response relative to a control, in per cent. With `C#Cc1cccc(Nc2ncnc3cc(OCCOC)c(OCCOC)cc23)c1`, the inhibition in [1] is 7%; in assay [2], -1%; in assay [3] it was 11%; in [4] it was -4%; in assay [5], 5%; in [6], -9%. For the same compound, the inhibition in assay [7] is -8%; in assay [8] it was 18%; in assay [9] it was -1%; in assay [10], -7%; in assay [11], -3%; in assay [12] it was 14%.

For the compound `C[C@@H](Nc1ncnc2oc(-c3ccc(NCCN(C)C)cc3)cc12)c1ccccc1`, the inhibition in [1] was 10%; in assay [2], 3%; in [3] it was 17%; in [4] it was 10%; in assay [5] it was 27%; in assay [6], 0%. The inhibition in assay [7] is 4%; in [8], 21%; in assay [9], 6%; in assay [10], -2%; in assay [11], 7%; in assay [12], 8%.

Turning to `C[C@@H](Nc1ncnc2oc(-c3ccc(NCCN4CCCCC4)cc3)cc12)c1ccccc1`, the inhibition in assay [1] is 10%; in [2] it was 4%; in assay [3] it was 17%; in assay [4], 7%; in assay [5], 22%; in [6], -5%. Further, the inhibition in assay [7] is 4%; in assay [8] it was 20%; in assay [9] it was 4%; in assay [10], -9%; in assay [11] it was 16%; in assay [12] it was 11%.
